In brackets after ≈: the same amount, converted by molar mass.
Key:
Format in all cases: functional
Staphylococcus aureus [1] = assay: Antimicrobial activity against erythromycin-susceptible Staphylococcus aureus PU19 encoded by erm(A) gene
Staphylococcus aureus [2] = assay: Antimicrobial activity against erythromycin-susceptible Staphylococcus aureus PU32 encoded by erm(A) gene
Streptococcus pneumoniae [3] = assay: Antimicrobial activity against erythromycin-resistant Streptococcus pneumoniae PU13 encoded by erm and mef gene
Streptococcus pneumoniae [4] = assay: Antimicrobial activity against erythromycin-resistant Streptococcus pneumoniae PU11 encoded by erm and mef gene
Staphylococcus aureus [5] = assay: Antimicrobial activity against erythromycin-susceptible Staphylococcus aureus ATCC 29213
Streptococcus pneumoniae [6] = assay: Antimicrobial activity against erythromycin-susceptible Streptococcus pneumoniae ATCC 49619

| SMILES | MIC (Staphylococcus aureus [1]) [µg/mL] | MIC (Staphylococcus aureus [2]) [µg/mL] | MIC (Streptococcus pneumoniae [3]) [µg/mL] | MIC (Streptococcus pneumoniae [4]) [µg/mL] | MIC (Staphylococcus aureus [5]) [µg/mL] | MIC (Streptococcus pneumoniae [6]) [µg/mL] |
| --- | --- | --- | --- | --- | --- | --- |
| CC[C@H]1OC(=O)[C@H](C)[C@@H](O/C=C\Cc2cncc3ccccc23)[C@H](C)[C@@H](O[C@@H]2O[C@H](C)C[C@H](N(C)C)[C@H]2O)[C@](C)(OC)C[C@@H](C)/C(=N\OCc2ccccc2Cl)[C@H](C)[C@H]2OC(=O)O[C@@]21C | 64 (≈ 69.4 µM) | 32 (≈ 34.7 µM) | 32 (≈ 34.7 µM) | 32 (≈ 34.7 µM) | 8 (≈ 8.67 µM) | 0.25 (≈ 0.271 µM) |
| CC[C@H]1OC(=O)[C@H](C)[C@@H](OC/C=C/c2cncc3ccccc23)[C@H](C)[C@@H](O[C@@H]2O[C@H](C)C[C@H](N(C)C)[C@H]2O)[C@](C)(OC)C[C@@H](C)/C(=N\OCc2ccccc2Cl)[C@H](C)[C@H]2OC(=O)O[C@@]21C | 64 (≈ 69.4 µM) | 64 (≈ 69.4 µM) | 32 (≈ 34.7 µM) | 32 (≈ 34.7 µM) | 64 (≈ 69.4 µM) | 4 (≈ 4.34 µM) |
| CC[C@H]1OC(=O)[C@H](C)[C@@H](O[C@H]2C[C@@](C)(OC)[C@@H](O)[C@H](C)O2)[C@H](C)[C@@H](O[C@@H]2O[C@H](C)C[C@H](N(C)C)[C@H]2O)[C@](C)(O)C[C@@H](C)CN(C)[C@H](C)[C@@H](O)[C@]1(C)O [AZITHROMYCIN] | > 256 | 64 (≈ 85.4 µM) | 128 (≈ 171 µM) | 128 (≈ 171 µM) | 0.5 (≈ 0.668 µM) | 0.064 (≈ 0.0854 µM) |
| CC[C@H]1OC(=O)[C@H](C)[C@@H](O[C@H]2C[C@@](C)(OC)[C@@H](O)[C@H](C)O2)[C@H](C)[C@@H](O[C@@H]2O[C@H](C)C[C@H](N(C)C)[C@H]2O)[C@](C)(OC)C[C@@H](C)C(=O)[C@H](C)[C@@H](O)[C@]1(C)O [CLARITHROMYCIN] | > 256 | 128 (≈ 171 µM) | 128 (≈ 171 µM) | 128 (≈ 171 µM) | 0.5 (≈ 0.668 µM) | 0.032 (≈ 0.0428 µM) |
